Results taken from PubChem BioAssay (NCI).
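Exposure lasted 48 hours, with cells grown in 96-well plates and compounds tested at five concentrations. GI50: concentration for 50% inhibition of growth. Definition used: TGI = concentration required for complete inhibition of growth.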

Tests used:
Assay in all cases: growth of human tumour cells (NCI), 48 h
U251 CNS = test system: U251 CNS
SNB-19 CNS = test system: SNB-19 CNS
KM12 colon = test system: KM12 colon
SN12C renal = test system: SN12C renal
UACC-257 melanoma = test system: UACC-257 melanoma
MOLT-4 leukemia = test system: MOLT-4 leukemia
OVCAR-3 ovarian = test system: OVCAR-3 ovarian
UO-31 renal = test system: UO-31 renal
SNB-75 CNS = test system: SNB-75 CNS
HCT-116 colon = test system: HCT-116 colon
DU-145 prostate = test system: DU-145 prostate
OVCAR-4 ovarian = test system: OVCAR-4 ovarian
RXF 393 renal = test system: RXF 393 renal
HOP-62 NSCLC = test system: HOP-62 NSCLC
IGROV1 ovarian = test system: IGROV1 ovarian
SK-OV-3 ovarian = test system: SK-OV-3 ovarian
T-47D breast = test system: T-47D breast
NCI-H522 lung = test system: NCI-H522 lung
MDA-MB-435 = test system: MDA-MB-435
HCT-15 colon = test system: HCT-15 colon
CCRF-CEM leukemia = test system: CCRF-CEM leukemia
SF-539 CNS = test system: SF-539 CNS
ACHN renal = test system: ACHN renal
SK-MEL-28 melanoma = test system: SK-MEL-28 melanoma
BT-549 breast = test system: BT-549 breast
CAKI-1 renal = test system: CAKI-1 renal
HCC-2998 colon = test system: HCC-2998 colon
K-562 leukemia = test system: K-562 leukemia
EKVX NSCLC = test system: EKVX NSCLC
NCI/ADR-RES ovarian = test system: NCI/ADR-RES ovarian
A498 renal = test system: A498 renal
OVCAR-5 ovarian = test system: OVCAR-5 ovarian
SF-268 CNS = test system: SF-268 CNS
OVCAR-8 ovarian = test system: OVCAR-8 ovarian
MALME-3M melanoma = test system: MALME-3M melanoma
SR leukemia = test system: SR leukemia
HL-60(TB) leukemia = test system: HL-60(TB) leukemia
M14 melanoma = test system: M14 melanoma
SK-MEL-5 melanoma = test system: SK-MEL-5 melanoma
786-0 renal = test system: 786-0 renal
NCI-H460 lung = test system: NCI-H460 lung
UACC-62 melanoma = test system: UACC-62 melanoma
SF-295 CNS = test system: SF-295 CNS
LOX IMVI melanoma = test system: LOX IMVI melanoma
HS 578T breast = test system: HS 578T breast
SW-620 colon = test system: SW-620 colon
RPMI-8226 leukemia = test system: RPMI-8226 leukemia
PC-3 prostate = test system: PC-3 prostate
A549 NSCLC = test system: A549 NSCLC
TK-10 renal = test system: TK-10 renal
COLO 205 colon = test system: COLO 205 colon
SK-MEL-2 melanoma = test system: SK-MEL-2 melanoma
MCF7 breast = test system: MCF7 breast
NCI-H23 lung = test system: NCI-H23 lung
NCI-H226 lung = test system: NCI-H226 lung
HT29 colon = test system: HT29 colon
MDA-MB-231 breast = test system: MDA-MB-231 breast
HOP-92 NSCLC = test system: HOP-92 NSCLC

Question: How did the GI50 (U251 CNS) turn out when O=C(N/N=C/c1ccc([N+](=O)[O-])o1)c1[nH]c2ccc(Br)cc2c1-c1ccccc1 was run?
Answer: 303 nM

Question: What about the TGI (U251 CNS) of the same compound?
Answer: 1560 nM

Question: And the GI50 (SNB-19 CNS)?
Answer: 337 nM

Question: And the TGI (SNB-19 CNS)?
Answer: 12100 nM

Question: And the GI50 (KM12 colon)?
Answer: 410 nM

Question: What about the TGI (KM12 colon) of the same compound?
Answer: 11600 nM

Question: What about the GI50 (SN12C renal) of the same compound?
Answer: 323 nM

Question: And the TGI (SN12C renal)?
Answer: 1980 nM

Question: What about the GI50 (UACC-257 melanoma) of the same compound?
Answer: 542 nM

Question: What about the TGI (UACC-257 melanoma) of the same compound?
Answer: 4350 nM

Question: And the GI50 (MOLT-4 leukemia)?
Answer: 356 nM

Question: What about the TGI (MOLT-4 leukemia) of the same compound?
Answer: 10600 nM

Question: And the GI50 (OVCAR-3 ovarian)?
Answer: 433 nM

Question: And the TGI (OVCAR-3 ovarian)?
Answer: 4090 nM

Question: And the GI50 (UO-31 renal)?
Answer: 431 nM

Question: And the TGI (UO-31 renal)?
Answer: 7820 nM

Question: And the GI50 (SNB-75 CNS)?
Answer: 216 nM

Question: What about the TGI (SNB-75 CNS) of the same compound?
Answer: 1550 nM

Question: And the GI50 (HCT-116 colon)?
Answer: 182 nM

Question: And the TGI (HCT-116 colon)?
Answer: 980 nM

Question: And the GI50 (DU-145 prostate)?
Answer: 406 nM

Question: What about the TGI (DU-145 prostate) of the same compound?
Answer: 12200 nM

Question: What about the GI50 (OVCAR-4 ovarian) of the same compound?
Answer: 720 nM

Question: And the TGI (OVCAR-4 ovarian)?
Answer: 10500 nM

Question: What about the GI50 (RXF 393 renal) of the same compound?
Answer: 294 nM

Question: What about the TGI (RXF 393 renal) of the same compound?
Answer: 1090 nM

Question: And the GI50 (HOP-62 NSCLC)?
Answer: 541 nM

Question: What about the TGI (HOP-62 NSCLC) of the same compound?
Answer: 5360 nM

Question: What about the GI50 (IGROV1 ovarian) of the same compound?
Answer: 340 nM

Question: What about the TGI (IGROV1 ovarian) of the same compound?
Answer: 10900 nM

Question: What about the GI50 (SK-OV-3 ovarian) of the same compound?
Answer: 501 nM

Question: What about the TGI (SK-OV-3 ovarian) of the same compound?
Answer: 8370 nM

Question: And the GI50 (T-47D breast)?
Answer: 1790 nM

Question: And the TGI (T-47D breast)?
Answer: 24000 nM

Question: And the GI50 (NCI-H522 lung)?
Answer: 37.4 nM

Question: What about the TGI (NCI-H522 lung) of the same compound?
Answer: 345 nM

Question: And the GI50 (MDA-MB-435)?
Answer: 111 nM

Question: And the TGI (MDA-MB-435)?
Answer: 293 nM

Question: What about the GI50 (HCT-15 colon) of the same compound?
Answer: 230 nM

Question: What about the TGI (HCT-15 colon) of the same compound?
Answer: 987 nM

Question: And the GI50 (CCRF-CEM leukemia)?
Answer: 414 nM

Question: And the TGI (CCRF-CEM leukemia)?
Answer: 45800 nM

Question: And the GI50 (SF-539 CNS)?
Answer: 177 nM

Question: What about the TGI (SF-539 CNS) of the same compound?
Answer: 514 nM

Question: And the GI50 (ACHN renal)?
Answer: 379 nM

Question: And the TGI (ACHN renal)?
Answer: 6110 nM

Question: What about the GI50 (SK-MEL-28 melanoma) of the same compound?
Answer: 1170 nM

Question: What about the TGI (SK-MEL-28 melanoma) of the same compound?
Answer: 7190 nM

Question: What about the GI50 (BT-549 breast) of the same compound?
Answer: 222 nM

Question: What about the TGI (BT-549 breast) of the same compound?
Answer: 694 nM

Question: What about the GI50 (CAKI-1 renal) of the same compound?
Answer: 382 nM

Question: What about the TGI (CAKI-1 renal) of the same compound?
Answer: 9370 nM

Question: What about the GI50 (HCC-2998 colon) of the same compound?
Answer: 367 nM

Question: What about the TGI (HCC-2998 colon) of the same compound?
Answer: 1600 nM

Question: And the GI50 (K-562 leukemia)?
Answer: 118 nM

Question: And the TGI (K-562 leukemia)?
Answer: > 100000 nM

Question: What about the GI50 (EKVX NSCLC) of the same compound?
Answer: 1120 nM

Question: What about the TGI (EKVX NSCLC) of the same compound?
Answer: 9140 nM

Question: And the GI50 (NCI/ADR-RES ovarian)?
Answer: 234 nM

Question: And the TGI (NCI/ADR-RES ovarian)?
Answer: 2830 nM

Question: What about the GI50 (A498 renal) of the same compound?
Answer: 7450 nM

Question: And the TGI (A498 renal)?
Answer: 24400 nM

Question: And the GI50 (OVCAR-5 ovarian)?
Answer: 439 nM

Question: And the TGI (OVCAR-5 ovarian)?
Answer: 14000 nM

Question: And the GI50 (SF-268 CNS)?
Answer: 564 nM

Question: And the TGI (SF-268 CNS)?
Answer: 11000 nM

Question: And the GI50 (OVCAR-8 ovarian)?
Answer: 241 nM

Question: What about the TGI (OVCAR-8 ovarian) of the same compound?
Answer: 677 nM

Question: What about the GI50 (MALME-3M melanoma) of the same compound?
Answer: 682 nM

Question: And the TGI (MALME-3M melanoma)?
Answer: 3320 nM

Question: And the GI50 (SR leukemia)?
Answer: 143 nM

Question: And the TGI (SR leukemia)?
Answer: 9090 nM

Question: What about the GI50 (HL-60(TB) leukemia) of the same compound?
Answer: 235 nM

Question: And the TGI (HL-60(TB) leukemia)?
Answer: 626 nM

Question: And the GI50 (M14 melanoma)?
Answer: 274 nM

Question: And the TGI (M14 melanoma)?
Answer: 1160 nM

Question: What about the GI50 (SK-MEL-5 melanoma) of the same compound?
Answer: 235 nM

Question: What about the TGI (SK-MEL-5 melanoma) of the same compound?
Answer: 638 nM

Question: And the GI50 (786-0 renal)?
Answer: 367 nM

Question: What about the TGI (786-0 renal) of the same compound?
Answer: 4750 nM

Question: What about the GI50 (NCI-H460 lung) of the same compound?
Answer: 331 nM

Question: And the TGI (NCI-H460 lung)?
Answer: 1000 nM

Question: What about the GI50 (UACC-62 melanoma) of the same compound?
Answer: 150 nM

Question: And the TGI (UACC-62 melanoma)?
Answer: 2070 nM

Question: And the GI50 (SF-295 CNS)?
Answer: 189 nM

Question: What about the TGI (SF-295 CNS) of the same compound?
Answer: 1230 nM

Question: And the GI50 (LOX IMVI melanoma)?
Answer: 190 nM

Question: What about the TGI (LOX IMVI melanoma) of the same compound?
Answer: 1610 nM

Question: And the GI50 (HS 578T breast)?
Answer: 519 nM

Question: And the TGI (HS 578T breast)?
Answer: 14600 nM

Question: What about the GI50 (SW-620 colon) of the same compound?
Answer: 359 nM

Question: And the TGI (SW-620 colon)?
Answer: 1970 nM

Question: What about the GI50 (RPMI-8226 leukemia) of the same compound?
Answer: 357 nM

Question: And the TGI (RPMI-8226 leukemia)?
Answer: 12800 nM

Question: What about the GI50 (PC-3 prostate) of the same compound?
Answer: 400 nM

Question: And the TGI (PC-3 prostate)?
Answer: 6390 nM

Question: What about the GI50 (A549 NSCLC) of the same compound?
Answer: 354 nM

Question: And the TGI (A549 NSCLC)?
Answer: 11800 nM

Question: What about the GI50 (TK-10 renal) of the same compound?
Answer: 1530 nM

Question: And the TGI (TK-10 renal)?
Answer: 10100 nM

Question: What about the GI50 (COLO 205 colon) of the same compound?
Answer: 244 nM

Question: What about the TGI (COLO 205 colon) of the same compound?
Answer: 577 nM

Question: And the GI50 (SK-MEL-2 melanoma)?
Answer: 335 nM

Question: What about the TGI (SK-MEL-2 melanoma) of the same compound?
Answer: 1700 nM

Question: And the GI50 (MCF7 breast)?
Answer: 110 nM

Question: And the TGI (MCF7 breast)?
Answer: 5530 nM

Question: What about the GI50 (NCI-H23 lung) of the same compound?
Answer: 393 nM

Question: And the TGI (NCI-H23 lung)?
Answer: 4160 nM

Question: And the GI50 (NCI-H226 lung)?
Answer: 306 nM

Question: What about the TGI (NCI-H226 lung) of the same compound?
Answer: 1560 nM

Question: What about the GI50 (HT29 colon) of the same compound?
Answer: 307 nM

Question: And the TGI (HT29 colon)?
Answer: 1270 nM

Question: And the GI50 (MDA-MB-231 breast)?
Answer: 288 nM

Question: What about the TGI (MDA-MB-231 breast) of the same compound?
Answer: 1050 nM

Question: And the GI50 (HOP-92 NSCLC)?
Answer: 733 nM

Question: What about the TGI (HOP-92 NSCLC) of the same compound?
Answer: 4390 nM
